Data as given in patent publication US9656962B2, “Ring-contracted morphinans and the use thereof” (Purdue Pharma L.P., priority 2013, dated 2017).

Experiments:
μ-opioid receptor [1] = molecular target: T1, μ-opioid receptor (Homo sapiens (Human), UniProt P35372); assay: μ-opioid receptor [35S]GTPγS functional assay, HEK-293 or CHO cells (Table 4); assay type: biochemical; conditions: for Emax: relative to DAMGO; for EC50: μ GTP
Procedure: μ-Opioid Receptor Functional Assay Procedures: [^35S]GTPγS functional assays were conducted using freshly thawed μ-receptor membranes prepared in-house from a cell line expressing recombinant μ opioid receptor in a HEK-293, CHO or U-2 OS cell background, or purchased from a commercial source (Perkin Elmer, Shelton, Conn.; or DiscovRx, Fremont, Calif.). Assay reactions were prepared by sequentially adding the following reagents to binding buffer (100 mM NaCl, 10 mM MgCl2, 20 mM HEPES, pH 7.4) on ice (final concentrations indicated): membrane protein (0.026 mg/mL), saponin ([…]), GDP ([…]) and [^35S]GTPγS (0.20 nM; Perkin Elmer, Shelton, Conn.). The prepared membrane solution (190 μl/well) was transferred to 96-shallow well polypropylene plates containing 10 μl of 20× concentrated stock solutions of the agonist [D-Ala^2, N-methyl-Phe^4 Gly-ol^5]-enkephalin (DAMGO) prepared in dimethyl sulfoxide (DMSO). Plates were incubated for 30 min at about 25° C. with shaking Reactions were terminated by rapid filtration onto 96-well Unifilter GF/B filter plates (Perkin Elmer, Shelton, Conn.) using a 96-well tissue harvester (Perkin Elmer, Shelton, Conn.) followed by three filtration washes with 200 μl of ice-cold wash buffer (10 mM NaH2PO4, 10 mM Na2HPO4, pH 7.4). Filter plates were subsequently dried at 50° C. for 2-3 hours. BetaScint scintillation cocktail (Perkin Elmer, Shelton, Conn.) was added (50 μl/well) and plates were counted using a Packard Top-Count for 1 min/well. Data were analyzed using the sigmoidal dose-response curve fitting functions in GraphPad PRISM v. 3.0, or an in-house function for non-linear, sigmoidal dose-response curve-fitting. [^35S]GTPγS functional assays can also be conducted using freshly thawed μ-receptor membranes prepared from a cell line expressing recombinant μ opioid receptor in a CHO-K1 cell background.
μ GTP Emax (%) is the maximal effect elicited by a compound relative to the effect elicited by DAMGO, a standard μ agonist.
(§1) In TABLE 4, activity response of certain Compounds of the Invention to the μ- and κ-opioid receptors was determined as described above for functional assays using HEK-293 or CHO cells.

κ-opioid receptor [2] = molecular target: T2, κ-opioid receptor (Homo sapiens (Human), UniProt P41145); assay: κ-opioid receptor [35S]GTPγS functional assay, HEK-293 or CHO cells (Table 4); assay type: biochemical; conditions: for Emax: relative to U69,593; for EC50: κ GTP
Procedure: κ-Opioid Receptor Functional Assay Procedures: Functional [^35S]GTPγS binding assays were conducted as follows. κ opioid receptor membrane solution was prepared by sequentially adding final concentrations of 0.026 μg/μl κ membrane protein (in-house), 10 μg/mL saponin, 3 μM GDP and 0.20 nM [^35S]GTPγS to binding buffer (100 mM NaCl, 10 mM MgCl2, 20 mM HEPES, pH 7.4) on ice. The prepared membrane solution (190 μl/well) was transferred to 96-shallow well polypropylene plates containing 10 μl of 20× concentrated stock solutions of agonist prepared in DMSO. Plates were incubated for 30 min at a temperature of about 25° C. with shaking. Reactions were terminated by rapid filtration onto 96-well Unifilter GF/B filter plates (Perkin Elmer, Shelton, Conn.) using a 96-well tissue harvester (Packard) and followed by three filtration washes with 200 μl ice-cold binding buffer (10 mM NaH2PO4, 10 mM Na2HPO4, pH 7.4). Filter plates were subsequently dried at 50° C. for 2-3 hours. Fifty μl/well scintillation cocktail (Perkin Elmer, Shelton, Conn.) was added and plates were counted in a Packard Top-Count for 1 min/well.
κ GTP Emax (%) is the maximal effect elicited by a compound relative to the effect elicited by U69,593.
as §1

μ-opioid receptor [3] = molecular target: T1, μ-opioid receptor; assay: μ-opioid receptor [35S]GTPγS functional assay, U-2 OS cells (Table 5); assay type: biochemical; conditions: for Emax: relative to DAMGO; for EC50: μ GTP
Procedure, shortened: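 Membranes (0.026 mg/mL) from cells expressing recombinant human μ-opioid receptor in a U-2 OS background were incubated with 0.20 nM [35S]GTPγS, 3 mM GDP and saponin in 20 mM HEPES pH 7.4, 100 mM NaCl, 10 mM MgCl2 for 30 min at about 25 °C. Filter-bound radioactivity counted; sigmoidal dose-response fits gave values, Emax relative to DAMGO.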

κ-opioid receptor [4] = molecular target: T2, κ-opioid receptor; assay: κ-opioid receptor [35S]GTPγS functional assay, U-2 OS cells (Table 5); assay type: biochemical; conditions: for Emax: relative to U69,593; for EC50: κ GTP
Procedure, shortened: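 [35S]GTPγS binding in κ receptor membranes (0.026 μg/μl protein) with 10 μg/mL saponin, 3 μM GDP and 0.20 nM [35S]GTPγS in pH 7.4 HEPES/NaCl/MgCl2 buffer. Agonist incubation lasted 30 min at about 25 °C, followed by filtration and scintillation counting. Emax is expressed relative to U69,593.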

[5] = molecular target: recombinant human kappa opioid receptor (κ) (Homo sapiens (Human), UniProt P41145); assay: κ-opioid receptor radioligand binding assay ([3H]-U69,593); conditions: binding affinity
Procedure: κ-Opioid Receptor Binding Assay Procedures: Membranes from HEK-293 cells, CHO cells or U-2 OS cells expressing the recombinant human kappa opioid receptor (κ) were prepared by lysing cells in ice cold hypotonic buffer (2.5 mM MgCl2, 50 mM HEPES, pH 7.4) (10 mL/10 cm dish) followed by homogenization with a tissue grinder/Teflon pestle. Membranes from a cell line naturally expressing kappa opioid receptor can also be used. Membranes were collected by centrifugation at 30,000×g for 15 min at 4° C. and pellets were resuspended in hypotonic buffer to a final concentration of 1-3 mg/mL. Protein concentrations were determined using the BioRad protein assay reagent with bovine serum albumen as standard. Aliquots of κ receptor membranes were stored at −80° C.
Radioligand dose displacement assays used 0.4 nM [^3H]-U69,593 (GE Healthcare, Piscataway, N.J.; 40 Ci/mmole) with 15 μg membrane protein (recombinant opioid receptor expressed in HEK 293 cells; in-house prep) in a final volume of 200 μl binding buffer (5% DMSO, 50 mM Trizma base, pH 7.4). Non-specific binding was determined in the presence of 10 μM unlabeled naloxone or U69,593. All reactions were performed in 96-well polypropylene plates for 1 hour at a temperature of about 25° C. Binding reactions were terminated by rapid filtration onto 96-well Unifilter GF/C filter plates (Perkin Elmer, Shelton, Conn.) presoaked in 0.5% polyethylenimine (Sigma). Harvesting was performed using a 96-well tissue harvester (Perkin Elmer, Shelton, Conn.) followed by five filtration washes with 200 μl ice-cold binding buffer. Filter plates were subsequently dried at 50° C. for 1-2 hours. Fifty μl/well scintillation cocktail (Perkin Elmer, Shelton, Conn.) was added and plates were counted in a Packard Top-Count for 1 min/well.

## N[C@@H]1CC23CCN(CC4CC4)[C@H](Cc4ccc(O)cc42)[C@]3(O)C1 (stereo in doubt) [Compound 22, (2R,3aS,4R,9bS)-2-amino-12-(cyclopropylmethyl)-1,2,3,3a,4,5-hexahydro-4,9b-(epiminoethano)-cyclopenta[a]naphthalene-3a,8-diol]
μ-opioid receptor [1]
  Emax: 1%
μ-opioid receptor [1]; bound given in μM
  EC50: > 20 µM
κ-opioid receptor [2]
  Emax: 77 ± 1%
  EC50: 25.7 ± 4.99 nM
μ-opioid receptor [3]
  Emax: 20.7 ± 2.4%
  EC50: 111 ± 14.1 nM
κ-opioid receptor [4]
  Emax: 101 ± 1.76%
  EC50: 25.4 ± 2.09 nM

## NC(=O)[C@H]1C[C@]23CCN(CC4CC4)[C@H](Cc4ccc(O)cc42)[C@]3(O)C1 [Compound 30, (2S,3aS,4R,9bS)-12-(cyclopropylmethyl)-3a,8-dihydroxy-1,2,3,3a,4,5-hexahydro-4,9b-(epiminoethano)cyclopenta-[a]naphthalene-2-carboxamide]
μ-opioid receptor [1]
  Emax: 1%
μ-opioid receptor [1]; bound given in μM
  EC50: > 20 µM
κ-opioid receptor [2]
  Emax: 50.7 ± 0.33%
  EC50: 2.49 ± 0.09 nM
μ-opioid receptor [3]
  Emax: 32 ± 1.15%
  EC50: 1.62 ± 0.41 nM
κ-opioid receptor [4]
  Emax: 100 ± 1.2%
  EC50: 1.26 ± 0.05 nM

## CC(C)CNC(=O)[C@H]1C[C@]23CCN(CC4CC4)[C@H](Cc4ccc(O)cc42)[C@]3(O)C1 [Compound 36, (2S,3aS,4R,9bS)-12-(cyclopropylmethyl)-3a,8-dihydroxy-N-isobutyl-1,2,3,3a,4,5-hexahydro-4,9b-(epiminoethano)-cyclopenta[a]naphthalene-2-carboxamide]
μ-opioid receptor [1]
  Emax: 1%
μ-opioid receptor [1]; bound given in μM
  EC50: > 20 µM
κ-opioid receptor [2]
  Emax: 94.7 ± 3.71%
  EC50: 2.24 ± 0.46 nM
μ-opioid receptor [3]
  Emax: 47.7 ± 3.18%
  EC50: 1.96 ± 0.27 nM
κ-opioid receptor [4]
  Emax: 108 ± 4.1%
  EC50: 0.27 ± 0.019 nM

## Cc1ccc(CNC(=O)[C@@H]2C[C@]34CCN(CC5CC5)[C@H](Cc5ccc(O)cc53)[C@]4(O)C2)cc1 [Compound 37, (2R,3aS,4R,9bS)-12-(cyclopropylmethyl)-3a,8-dihydroxy-N-(4-methylbenzyl)-1,2,3,3a,4,5-hexahydro-4,9b-(epimino-ethano)cyclopenta[a]naphthalene-2-carboxamide]
μ-opioid receptor [1]
  Emax: 1%
μ-opioid receptor [1]; bound given in μM
  EC50: > 20 µM
κ-opioid receptor [2]
  Emax: 32.5 ± 2.1%
  EC50: 1.74 ± 0.39 nM
μ-opioid receptor [3]
  Emax: 30.7 ± 2.67%
  EC50: 8.48 ± 2.28 nM
κ-opioid receptor [4]
  Emax: 105.3 ± 0.88%
  EC50: 0.97 ± 0.11 nM

## O=C(NCc1ccc(O)cc1O)[C@@H]1C[C@]23CCN(CC4CC4)[C@H](Cc4ccc(O)cc42)[C@]3(O)C1 [Compound 41, (2R,3aS,4R,9bS)-12-(cyclopropylmethyl)-N-(2,4-dihydroxybenzyl)-3a,8-dihydroxy-1,2,3,3a,4,5-hexahydro-4,9b-(epimino-ethano)cyclopenta[a]naphthalene-2-carboxamide]
μ-opioid receptor [1]
  Emax: 1%
μ-opioid receptor [1]; bound given in μM
  EC50: > 20 µM
κ-opioid receptor [2]
  Emax: 35.8 ± 3.07%
  EC50: 1.74 ± 0.47 nM
μ-opioid receptor [3]
  Emax: 25.3 ± 1.33%
  EC50: 4.19 ± 1.02 nM
κ-opioid receptor [4]
  Emax: 86.7 ± 6.74%
  EC50: 1.02 ± 0.08 nM

## O=C(NCc1ccc(Cl)c(Cl)c1)[C@@H]1C[C@]23CCN(CC4CC4)[C@H](Cc4ccc(O)cc42)[C@]3(O)C1 [Compound 46, (2R,3aS,4R,9bS)-12-(cyclopropylmethyl)-N-(3,4-dichlorobenzyl)-3a,8-dihydroxy-1,2,3,3a,4,5-hexahydro-4,9b-(epimino-ethano)cyclopenta[a]naphthalene-2-carboxamide]
μ-opioid receptor [1]
  Emax: 0%
μ-opioid receptor [1]; bound given in μM
  EC50: > 20 µM
κ-opioid receptor [2]
  Emax: 32 ± 5%
  EC50: 0.2 ± 0.072 nM
μ-opioid receptor [3]
  Emax: 38 ± 1.73%
  EC50: 0.91 ± 0.05 nM
κ-opioid receptor [4]
  Emax: 106 ± 4.26%
  EC50: 0.11 ± 0.01 nM

## O=C(NCc1ccc(Cl)c(Cl)c1)[C@H]1C[C@]23CCN(CC4CC4)[C@H](Cc4ccc(O)cc42)[C@]3(O)C1 [Compound 47, (2S,3aS,4R,9bS)-12-(cyclopropylmethyl)-N-(3,4-dichlorobenzyl)-3a,8-dihydroxy-1,2,3,3a,4,5-hexahydro-4,9b-(epimino-ethano)cyclopenta[a]naphthalene-2-carboxamide]
μ-opioid receptor [1]
  Emax: 86 ± 3.46%
  EC50: 0.00276 ± 8.2e-05 µM
κ-opioid receptor [2]
  Emax: 88.8 ± 10%
  EC50: 0.03 ± 0.01 nM
μ-opioid receptor [3]
  Emax: 98.8 ± 1.49%
  EC50: 0.05 ± 0.01 nM
κ-opioid receptor [4]
  Emax: 95 ± 5.29%
  EC50: 0.015 nM

## NC(=O)CNC(=O)[C@@H]1C[C@]23CCN(CC4CC4)[C@H](Cc4ccc(O)cc42)[C@]3(O)C1 [Compound 64, (2R,3aS,4R,9bS)-N-(2-amino-2-oxoethyl)-12-(cyclopropylmethyl)-3a,8-dihydroxy-1,2,3,3a,4,5-hexahydro-4,9b-(epiminoethano)cyclopenta[a]naphthalene-2-carboxamide]
μ-opioid receptor [1]
  Emax: 3.5%
μ-opioid receptor [1]; bound given in μM
  EC50: > 20 µM
μ-opioid receptor [3]
  Emax: 48.7 ± 0.33%
  EC50: 6.96 ± 0.27 nM
κ-opioid receptor [4]
  Emax: 101 ± 4.98%
  EC50: 3.51 ± 0.16 nM

## CN1CC[C@]23C[C@@H](C(N)=O)C[C@@]2(O)[C@H]1Cc1ccc(O)cc13 [Compound 77, (2R,3aS,4R,9bS)-3a,8-dihydroxy-12-methyl-1,2,3,3a,4,5-hexahydro-4,9b-(epiminoethano)cyclopenta[a]naphthalene-2-carboxamide]
μ-opioid receptor [1]
  Emax: 19.6 ± 5.65%
  EC50: 0.58 ± 0.131 µM
μ-opioid receptor [3]
  Emax: 85 ± 2.52%
  EC50: 389 ± 74 nM
κ-opioid receptor [4]
  Emax: 65.3 ± 6.44%
  EC50: 1150 ± 221 nM

## CN1CC[C@]23C[C@H](C(N)=O)C[C@@]2(O)[C@H]1Cc1ccc(O)cc13 [Compound 78, (2S,3aS,4R,9bS)-3a,8-dihydroxy-12-methyl-1,2,3,3a,4,5-hexahydro-4,9b-(epiminoethano)cyclopenta-[a]naphthalene-2-carboxamide]
μ-opioid receptor [1]
  Emax: 27.4 ± 1.03%
  EC50: 0.308 ± 0.093 µM
μ-opioid receptor [3]
  Emax: 94.7 ± 2.4%
  EC50: 89.3 ± 14.6 nM
κ-opioid receptor [4]
  Emax: 89.7 ± 4.84%
  EC50: 973 ± 136 nM

## O=C(NCCN1CCOCC1)[C@H]1C[C@]23CCN(CC4CC4)[C@H](Cc4ccc(O)cc42)[C@]3(O)C1 [Compound 93, (2S,3aS,4R,9bS)-12-(cyclopropylmethyl)-3a,8-dihydroxy-N-(2-morpholinoethyl)-1,2,3,3a,4,5-hexahydro-4,9b-(epimino-ethano)cyclopenta[a]naphthalene-2-carboxamide]
[5]
  Ki: 0.64 ± 0.071 nM
μ-opioid receptor [1]
  Emax: 28.8 ± 4.91%
  EC50: 0.00395 ± 0.00065 µM
κ-opioid receptor [2]
  Emax: 81.5 ± 1.27%
  EC50: 1.52 ± 0.17 nM
